Test results as given in patent publication US20240261236A1, “METHODS OF USING NMDA RECEPTOR ANTAGONISTS” (Seelos Therapeutics, Inc., priority 2021, published 2024).

Assays:
[1] = Hemodynamic effects (blood pressure), Phase 2 Part 1; type: in vivo, human; details: for Diastolic BP: baseline 79.0; for Systolic BP: baseline 121
Source text: The study schedule is identical for Parts 1 and 2. After admission to the emergency room or hospital, each subject will participate in a 1 to 2 day screening phase, a 16-day treatment phase including SOC during which study drug will be administered 2 times per week, for a total of 5 doses across the 16-day treatment period and a 2-week safety follow-up phase for a total of up to 5 weeks of study participation. Subjects will be treated as inpatients for approximately 7 days (including screening), and assuming the subject meets readiness for discharge criteria, will be discharged on Day 6 to continue the trial as outpatients, provided it is clinically appropriate to do so. Subjects will return to the clinic to receive study drug and to undergo study assessments 2 times per week until Day 16. Subjects will be evaluated for efficacy using multiple psychometric scales and for safety using clinical laboratory assessments, electrocardiograms (ECGs), vital signs, and physical examinations. After the last dose of study drug, subjects will continue to be monitored for safety for 2 weeks, including 4 in-person safety follow-up visits on Days 19, 22, 25/26, and 29/30.

[2] = tested on: adults with major depressive disorder (MDD) who are at imminent risk of suicide; assay: Treatment-emergent adverse events, Phase 2 Part 1
[3] = tested on: adults with major depressive disorder (MDD) who are at imminent risk of suicide; assay: S-STS CMCM Risk of Suicide at Within the Next 7 Days; type: in vivo, human; details: 90 mg IN+SOC
Source text: (§1) The S-STS CMCM (version 01/01/19) is a clinician-rated outcome measure which assesses SI/B on a standard 22-item scale, as well as multiple patient and clinician-rated items. The first 16 items are rated on a Likert-type scale ranging from “not at all” (0 units) to “extremely” (4 units), where select scoring (i.e., 4 specific items are scored based on the highest score on 2 of those items) yields a total score ranging from 0 units to 52 units. The final 6 items are used only when the patient misses a visit and is unable to complete the scale; if that missed visit is due to attempted or completed suicide, the possible maximum score is 100. The CMCM also yields 5 different single-item global assessments: 1) subject-rated likelihood of a suicide attempt; 2) subject-rated treatment needed; 3) clinician global severity of suicidal impulses, thoughts, and behaviors; 4) clinician judgment of suicide risk at this time and level of management needed for suicidality; and 5) clinician judgment of subject's likelihood of making a suicide attempt or of dying by suicide in the next 7 days.
(§2) The secondary endpoints are the change from baseline at 24 hours, as well as at Day 16, in the following: • (1) S-STS total score • (2) MADRS Total at Day 16 (only) • (3) Clinical Global Impression (CGI) of Severity for SI/B (CGIS-SI/B) and Change in SI/B (CGIC-SI/B) • (4) Patient Global Impression (PGI) of Severity for SI/B (PGIS-SI/B) and Change in SI/B (PGIC-SI/B • (5) S-STS Clinician-Rated Global Severity of Suicidal Impulses, Thoughts, and Behaviors • (6) S-STS Clinician judgment of subject's risk of a suicide attempt or death by suicide at this time • (7) S-STS Clinician judgment of subject's likelihood (risk) of making a suicide attempt or of dying by suicide in the next 7 days • (8) S-STS Subject-rated global severity of suicidal impulses, thoughts, and behavior • (9) S-STS Subject-rated treatment needed score • (10) MADRS item 10 response rate (response ≤3 units) • (11) MADRS Total response (total score ≥50% reduction from baseline) • (12) MADRS Total remission (total score ≤12 units)

[4] = tested on: adults with major depressive disorder (MDD) who are at imminent risk of suicide; assay: CADSS dissociation, Phase 2 Part 1
[5] = tested on: adults with major depressive disorder (MDD) who are at imminent risk of suicide; assay: S-STS CMCM total score, Phase 2 Part 1; type: in vivo, human; details: for S-STS CMCM score: 90 mg IN+SOC, 24 hours post-administration; for S-STS mean score: baseline 21.9
Source text: as §1, §2
Subjects who were hospitalized due to an imminent risk of suicide were enrolled according to the inclusion criteria. The trial was initiated in the hospital and all subjects received standard of care (SOC) therapy for the duration of the study. Subjects were released from the hospital (approximately Day 7) once stabilized and continued the study in an outpatient manner. […] Following the conclusion of the treatment period, a 2-week safety follow-up was also conducted to determine maintenance of treatment efficacy and to monitor for any additional safety events. See, FIG. 26.

CNC1(c2ccccc2Cl)CCCCC1=O (racemic) [intranasal racemic ketamine, 1:1 mixture of the two enantiomers of ketamine: (R)-2-(2-chlorophenyl)-2-(methylamino)cyclohexanone and (S)-2-(2-chlorophenyl)-2-(methylamino)cyclohexanone]
Diastolic BP ([1]; 1 hour post first dose): 80.9
Systolic BP ([1]; 1 hour post first dose): 125.8
Diastolic BP ([1]; 2 hours post first dose): 78.5
Systolic BP ([1]; 2 hours post first dose): 121.3
serious adverse events ([2]; 90 mg IN+SOC, Part 1): no serious adverse events
severity of adverse events ([2]; 90 mg IN+SOC, Part 1): mild or moderate
subjects who experienced a treatment-emergent adverse event (TEAE) ([2]; 17 subjects): 47%
tolerability ([2]; Part 1): well tolerated
vital sign or blood pressure-related AEs ([2]; Part 1): no vital sign or blood pressure-related AEs were reported
TEAE feeling abnormal ([2]; n=2): 11.8%
TEAE nausea ([2]; n=2): 11.8%
TEAE sedation ([2]; n=2): 11.8%
TEAE dizziness ([2]; n=3): 17.6%
TEAE headache ([2]; n=4): 23.5%
S-STS CMCM Risk of Suicide at Within the Next 7 Days score ([3]; Subject 1, 24 hours post-administration, from 5 units, range 1-10): 2 units
S-STS CMCM Risk of Suicide at Within the Next 7 Days score ([3]; Subject 2, 24 hours post-administration, baseline 7 units): 1 unit
S-STS CMCM Risk of Suicide at Within the Next 7 Days score ([3]; the scores (Subjects 1 and 2), Day 4): 1 unit
S-STS CMCM Risk of Suicide at Within the Next 7 Days score ([3]; the scores (Subjects 1 and 2), Day 8): 0 units
CADSS score ([4]; 90 mg IN+SOC, Subject 1, all assessments, threshold for dissociation >4 units): zero
CADSS score ([4]; 90 mg IN+SOC, Subject 2, 40 minutes post-administration): 2 units
CADSS score ([4]; 90 mg IN+SOC, Subject 2, 1 hour post-administration): zero
clinically relevant dissociation ([4]; 90 mg IN+SOC, Subjects 1 and 2): neither subject exhibited clinically relevant dissociation
clinically meaningful sedation or dissociation ([4]; 90 mg IN+SOC, entire patient cohort to the Day 29/30 endpoint): no clinically meaningful sedation or dissociation
CADSS change from baseline (at 40 minutes) ([4]; Day 4 (after second dose)): 2.3
CADSS change from baseline (at 40 minutes) ([4]; Day 8 (after third dose)): 0.4
subjects with no dissociation (total CADSS score >4 units = dissociation) ([4]; Days 1 and 4): four
subjects reporting dissociation ([4]; after Day 4 (on Day 11 at 40 minutes), 7 subjects): 1 subject
CADSS change from baseline (at 40 minutes) ([4]; after first dose): 3.8
S-STS CMCM score ([5]; Subject 1, from 18 units, range 0-52): zero
S-STS CMCM score ([5]; Subject 2, from 22 units): 3 units
S-STS CMCM mean (SD) change from baseline ([5]; 17 subjects enrolled, 24 hours post-dose): −20.6 (6.34)
S-STS CMCM mean (SD) change from baseline ([5]; 17 subjects enrolled, Day 16): −20.9 (3.66)
S-STS: patients (1 patient) with 4 points within-patient change ([5]; Day 1): 6%
S-STS: patients with >14 points within-patient change from baseline ([5]; Day 1): 94%
S-STS mean score ([5]; Day 1): 1.7
S-STS mean score ([5]; Day 16): 0.0
S-STS mean score ([5]; Day 29): 0.0
S-STS CMCM mean (SD) change from baseline ([5]; final follow-up on Day 29/30): −21.1 (3.71)
mean S-STS CMCM score ([5]; final follow-up on Day 29/30): 0.0 (0.00)
